These results are taken from ChEMBL document CHEMBL3808380, “Discovery of a novel covalent non-β-lactam inhibitor of the metallo-β-lactamase NDM-1” (Bioorg Med Chem, 2016).

Calls of active or inactive are those of the source. The rule behind the calls is not given here.

The test system of experiment [1] is Klebsiella pneumoniae. Description: Inhibition of Klebsiella pneumoniae 6xHis-tagged metallo-beta-lactamase NDM-1 K224A mutant expressed in Escherichia coli BL21 (DE3)pLysS assessed as hydrolysis of imipenem up to 750 uM after 20 mins.
The target of experiment [2] is Metallo-beta-lactamase type 2 (Klebsiella pneumoniae) (UniProt C7C422). The settings on record: 2 uM.
Experiment [3] has the same target. Conditions: 200 uM.
Experiment [4] deals with T1, Metallo-beta-lactamase type 2 (Klebsiella pneumoniae, UniProt C7C422). Description: Time-dependent inhibition of wild type Klebsiella pneumoniae 6xHis-tagged metallo-beta-lactamase NDM-1 expressed in Escherichia coli BL21 (DE3)pLysS.
Experiment [5] has as its system Klebsiella pneumoniae. Description: Binding affinity to Klebsiella pneumoniae 6xHis-tagged metallo-beta-lactamase NDM-1 K224A mutant expressed in Escherichia coli BL21 (DE3)pLysS at 1.5 mM after 3 hrs by ESI-MS analysis.
The target of experiment [6] is T1, Metallo-beta-lactamase type 2. Description: Time-dependent inhibition of wild type Klebsiella pneumoniae 6xHis-tagged metallo-beta-lactamase NDM-1 expressed in Escherichia coli BL21 (DE3)pLysS assessed as inhibition constant for initial non-covalant complex.
The nature of experiment [7]: Inhibition of beta-lactamase VIM-2 (unknown origin).

T1 sequence (C7C422 whole entry): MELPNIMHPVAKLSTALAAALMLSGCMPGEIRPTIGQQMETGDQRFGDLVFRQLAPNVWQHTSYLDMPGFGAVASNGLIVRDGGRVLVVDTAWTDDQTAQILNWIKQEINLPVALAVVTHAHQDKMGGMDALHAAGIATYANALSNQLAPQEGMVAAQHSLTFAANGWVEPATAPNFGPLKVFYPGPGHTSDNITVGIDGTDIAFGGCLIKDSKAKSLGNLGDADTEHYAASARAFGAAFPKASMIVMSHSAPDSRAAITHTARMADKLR
Metallo-beta-lactamase type 2 (Klebsiella pneumoniae), sequence (C7C422 whole entry): as above

Take `O=Cc1coc2ccccc2c1=O`: the inhibition result (with Klebsiella pneumoniae [1]; in experiment [7]) was “inactive” throughout. Besides, the inhibition result in experiment [2] and in experiment [3] was “tde” each time. Further, the figures for the Ki in experiment [4] and in experiment [6] were 0.58 µM and 76 µM, respectively. In addition, in the experiment on Klebsiella pneumoniae [5], the outcome was inactive.
